Where two headings read alike, the source gives them in different places. Blank lines part the entries; values can stand above or below the compound they belong to.
Assays:
[1] = DPPH radical scavenging (antioxidant) assay; format: biochemical
Protocol: The DPPH radical scavenging activity of ascorbic acid (vitamin C) and the synthetic commercial antioxidant, butylated hydroxytoluene (BHT) are also assayed as positive controls (see Table 10). […] Absorbance is determined after 30 min at 515 nm, and the scavenging capacity (SC) is calculated as SC %=[(A0−A1/A0)]×100, where A0 is the absorbance of the reagent blank and A1 is the absorbance of the test samples. The control contained all reagents except the compounds, and all tests are performed in triplicate.
Absorbance is determined after 30 min at 515 nm, and the scavenging capacity (SC) is calculated as SC %=[(A0−A1/A0)]×100 where A0 is the absorbance of the reagent blank, and A1 is the absorbance with test samples. The control contained all reagents except the compounds and all tests are performed in triplicate.

[2] = system: HCT-116 (human colon carcinoma); assay: MTS cytotoxicity / antiproliferative assay; format: cell-based
Protocol: (§1) Cell lines included three human colon cancer cells: HT-29 (human colon adenocarcinoma), HCT116 (human colon carcinoma) and Caco-2 (human epithelial colorectal adenocarcinoma). In addition, normal human colon cells are included: CCD-^18Co (human colon fibroblasts). All cell lines are obtained from the American Type Culture Collection (ATCC, Rockville, Md., USA) and maintained at the University of Rhode Island.
(§2) The assay is carried out to measure the IC50 values for samples. […] Test samples and a positive control, etoposide 4 mg/mL (Sigma), are solubilized in DMSO by sonication. […] Control wells are also included on all plates. […] Each point on the curve is […]. Data (see tables 6 to 9) are expressed as mean±SE for three replications on each cell line.

[3] = system: HT-29 (human colon adenocarcinoma); assay: MTS cytotoxicity / antiproliferative assay; format: cell-based
Protocol: as §1, §2

[4] = system: Caco-2 (human epithelial colorectal adenocarcinoma); assay: MTS cytotoxicity / antiproliferative assay; format: cell-based
Protocol: as §1, §2

[5] = Table 10, mean ± standard deviation, 30 min, 515 nm, read-out: IC50 (μM), DPPH radical scavenging
[6] = Homo sapiens, HCT-116, 48 h, read-out: Antiproliferative activity HCT-116 48 h (IC50), 48 h, pure isolated compounds
[7] = Homo sapiens, HCT-116, 48 h, read-out: HCT-116 48 h(IC50), Table 6 maple compounds, 48 h, unit inferred
[8] = Homo sapiens, HCT-116, 72 h, 72 h, pure isolated compounds, read-out: Antiproliferative activity HCT-116 72 h (IC50)
[9] = Homo sapiens, HCT-116, 72 h, 72 h, range given for the group, read-out: IC50 against HCT-116 cells at 72 h (activity ranking)
[10] = Homo sapiens, HCT-116, 72 h, Table 6 maple compounds, 72 h, unit inferred, read-out: HCT-116 72 h(IC50)
[11] = Homo sapiens, HT-29, 72 h, 72 h, pure isolated compounds, read-out: Antiproliferative activity HT-29 72 h (IC50)
[12] = Homo sapiens, HT-29, 72 h, Table 6 maple compounds, 72 h, unit inferred, read-out: HT-29 72 h(IC50)
[13] = Homo sapiens, Caco-2, 48 h, read-out: Antiproliferative activity Caco-2 48 h (IC50), 48 h, pure isolated compounds
[14] = Homo sapiens, Caco-2, 72 h, 72 h, pure isolated compounds, read-out: Antiproliferative activity Caco-2 72 h (IC50)
[15] = Homo sapiens, Caco-2, 72 h, Table 6 maple compounds, 72 h, unit inferred, read-out: Caco-2 72 h(IC50)
[16] = Homo sapiens, HT-29, 48 h, read-out: Antiproliferative activity HT-29 48 h (IC50), 48 h, pure isolated compounds
[17] = Homo sapiens, HT-29, 48 h, read-out: HT-29 48 h(IC50), Table 6 maple compounds, 48 h, unit inferred

Compound: gallic acid [compound 17]
IC50 [1, 5]: 703 ± 141 µM

IC50 [1, 5]: 3000 ± 1120 µM
IC50, DPPH radical scavenging, converted (ca.) ([1]; conversion of the μM value): ca. 660 μg/mL
IC50 ([1]; running text, listed as butylatedhydroxytoluene, read-out: IC50, DPPH radical scavenging (text)): 2650 µM
IC50 ([1]; running text, read-out: IC50, DPPH radical scavenging (text)): 3000 µM
Compound: Cc1cc(C(C)(C)C)c(O)c(C(C)(C)C)c1 [BHT, butylated hydroxytoluene, reference compound]

IC50 [1, 5]: 164 ± 15.2 µM
Compound: COc1cc(C(O)C(CO)Oc2ccc(C(O)C(O)CO)cc2OC)ccc1O (stereo not drawn) [compound 27]

Compound: catechol [compound 23]
IC50 [1, 5]: 10100 ± 1670 µM

IC50 [1, 5]: 904 µM
Compound: COc1cc(C(O)C(CO)Oc2c(OC)cc(CCCO)cc2OC)ccc1O (stereo not drawn) [compound 30, erythro-1-(4-hydroxy-3-methoxyphenyl)-2-[4-(3-hydroxypropyl)-2,6-dimethoxyphenoxy]-1,3-propanediol]

Compound: COc1cc([C@@H](O)[C@@H](CO)Oc2ccc(CCCO)cc2OC)ccc1O [compound 6, erythro-guaiacylglycerol-β-O-4′-dihydroconiferyl alcohol]
IC50 [2, 6]: 107 ± 2.3 µM
IC50 [2, 7]: 107 µM
IC50 [2, 8]: 98.6 ± 3.2 µM
IC50 [2, 9]: 94 to 110 µM
IC50 [2, 10]: 98.6 µM
IC50 [3, 11]: 110 ± 2 µM
IC50 [3, 12]: 110 µM
IC50 [4, 13]: 93.9 ± 2 µM
IC50 ([4]; Homo sapiens, Caco-2, 48 h, read-out: Caco-2 48 h(IC50), Table 6 maple compounds, 48 h, unit inferred): 93.9 µM
IC50 [4, 14]: 88.5 ± 1 µM
IC50 [4, 15]: 88.5 µM

Compound: 5-(3″,4″-dimethoxyphenyl)-3-hydroxy-3-(4′-hydroxy-3′-methoxybenzyl)-4-hydroxymethyl-dihydrofuran-2-one [compound 24]
IC50 [1, 5]: 254 ± 32.5 µM

Compound: O=C(O[C@H]1CO[C@H](CO)[C@@H](O)[C@@H]1O)c1cc(O)c(O)c(O)c1 [compound 72, ginnalin-C]
HCT-116 48 h IC50 ([2]; 48 h, ginnalins): 27.0 ± 1.9 mg/L
HCT-116 72 h IC50 ([2]; 72 h, ginnalins): 22.3 ± 2.4 mg/L
IC50 ([2]; Table 6 maple compounds, 72 h, unit inferred, read-out: HCT-116 72 h(IC50)): 70.7 µM
IC50 ([2]; read-out: HCT-116 48 h(IC50), Table 6 maple compounds, 48 h, unit inferred): 86.5 µM
HT-29 48 h IC50 ([3]; 48 h, ginnalins): 33.8 ± 2.0 mg/L
HT-29 72 h IC50 ([3]; 72 h, ginnalins): 30.1 ± 1.3 mg/L
IC50 ([3]; Table 6 maple compounds, 72 h, unit inferred, read-out: HT-29 72 h(IC50)): 95.4 µM
IC50 ([3]; read-out: HT-29 48 h(IC50), Table 6 maple compounds, 48 h, unit inferred): 107 µM
Caco-2 48 h IC50 ([4]; 48 h, ginnalins): 35.0 ± 1.4 mg/L
Caco-2 72 h IC50 ([4]; 72 h, ginnalins): 29.8 ± 1.2 mg/L
IC50 ([4]; Table 6 maple compounds, 72 h, unit inferred, read-out: Caco-2 72 h(IC50)): 94.4 µM
IC50 ([4]; read-out: Caco-2 48 h(IC50), Table 6 maple compounds, 48 h, unit inferred): 111 µM

IC50 [1, 5]: 322 ± 31.9 µM
Compound: COc1cc(/C=C/CO)cc(OC)c1O [compound 20, syringenin]
IC50 [2, 6]: 123.5 ± 1.1 µM
IC50 [2, 7]: 124 µM
IC50 [2, 8]: 108 ± 1.5 µM
IC50 [2, 9]: 94 to 110 µM
IC50 [2, 10]: 108 µM
IC50 [3, 16]: 126 ± 3 µM
IC50 [3, 17]: 126 µM
IC50 [3, 11]: 113 ± 1.5 µM
IC50 [3, 12]: 113 µM

IC50 [1, 5]: 68.9 ± 5.7 µM
Compound: 2,4,5-trihydroxyacetophenone [compound 13]

Compound: Oc1ccc(O)c(O)c1 [compound 52, 4-hydroxycatechol]
IC50 [2, 6]: 95 ± 3.4 µM
IC50 [2, 8]: 57.7 ± 3.4 µM
IC50 [2, 9]: 42 to 67 µM
IC50 [3, 16]: 110 ± 2.3 µM
IC50 [3, 11]: 100 ± 1.5 µM
IC50 [4, 13]: 89.2 ± 1.9 µM
IC50 [4, 14]: 78.6 ± 1.2 µM

Compound: COc1cc(C(=O)O)cc(OC)c1O [compound 19, syringic acid]
IC50 [2, 6]: 119 ± 1.3 µM
IC50 [2, 7]: 119 µM
IC50 [2, 8]: 108 ± 0.9 µM
IC50 [2, 9]: 94 to 110 µM
IC50 [2, 10]: 108 µM
IC50 [3, 16]: 126 ± 1.8 µM
IC50 [3, 17]: 126 µM
IC50 [3, 11]: 116 ± 1.8 µM
IC50 [3, 12]: 116 µM

IC50 [1, 5]: 1810 ± 266 µM
Compound: COc1cc(C=O)ccc1O [compound 15, vanillin]
IC50 [2, 6]: 120.3 ± 1 µM
IC50 [2, 7]: 120 µM
IC50 [2, 8]: 110 ± 1.7 µM
IC50 [2, 9]: 94 to 110 µM
IC50 [2, 10]: 110 µM
IC50 [3, 11]: 114 ± 1.5 µM
IC50 [3, 12]: 114 µM

Compound: COc1cc(/C=C/C(=O)O)ccc1O [Ferulic Acid]
IC50 [2, 7]: 119 µM
IC50 [2, 10]: 104 µM
IC50 [3, 17]: 128 µM
IC50 [3, 12]: 121 µM

Compound: O=C(O)c1cc(O)c(O)c(O)c1 [compound 17, gallic acid]
IC50 [2, 6]: 64.9 ± 2.3 µM
IC50 [2, 7]: 64.9 µM
IC50 [2, 8]: 42.1 ± 1.9 µM
IC50 [2, 9]: 42 to 67 µM
IC50 [2, 10]: 42.1 µM
IC50 [4, 14]: 89.3 ± 1.7 µM
IC50 [4, 15]: 89.3 µM
